# Measurements published in US20090192167A1 (priority 2005, published 2009).
# Like-named read-outs stand apart in the source and are kept apart here.
# Columns and labels:
# Pyricularia oryzae [1] = format: in vivo; details: granule, submerged application, inoculated 14 days after treatment, lesions examined after 7 days
# Pyricularia oryzae [2] = format: in vivo; details: granule, nursery box, inoculated 30 days after treatment, lesions examined after 7 days
# Pyricularia oryzae [3] = format: in vivo; details: inoculated 1 day after spraying, lesions counted after 7 days
# Chilo suppressalis [4] = details: in vivo
# Chilo suppressalis [5] = details: in vivo; remark: listed apart in the source
# Chilo suppressalis [6] = details: in vivo; remark: listed apart in the source
# [7] = amount of treated chemical 100 gai/box
# [8] = amount of treated chemical 150 gai/box
# [9] = amount of treated chemical 60 gai/box
Structure (SMILES),Pyricularia oryzae Control value (Pyricularia oryzae [3]; [7]),Mortality (%) (Chilo suppressalis [4]),Mortality (%) (Chilo suppressalis [5]),Mortality (%) (Chilo suppressalis [6]),also measured
Cc1cc(C(F)(C(F)(F)F)C(F)(F)F)cc(C)c1NC(=O)c1cccc(N(C)C(=O)c2cccnc2F)c1F [Compound 1246],–,–,–,–,Pyricularia oryzae Control value (Pyricularia oryzae [1]; 300 (gai/box)): 4; Pyricularia oryzae Control value (Pyricularia oryzae [2]; 5 gai/box): 0
"Cc1cc(C(F)(C(F)(F)F)C(F)(F)F)cc(C)c1NC(=O)c1cccc(NC(=O)c2ccccc2)c1F [Compound 601, N-(2,6-dimethyl-4-heptafluoroisopropyl)phenyl 3-(benzoylamino)-2-fluorobenzamide]",2,95%,–,–,–
CC(C)OC(=O)NC(CNC(=O)c1cc2ccccc2o1)C(C)C (stereo not shown) [Compound 3005],–,0%,0%,0%,Pyricularia oryzae Control value (Pyricularia oryzae [3]; [8]): 100; Pyricularia oryzae Control value (Pyricularia oryzae [1]; 450 (gai/box)): 100; Pyricularia oryzae Control value (Pyricularia oryzae [2]; 15 gai/box): 100
Cc1ccc(C(=O)NCC(NC(=O)OC(C)C)C(C)(C)C)cc1 (stereo not shown) [Compound 3004],–,0%,0%,0%,Pyricularia oryzae Control value (Pyricularia oryzae [3]; [8]): 100; Pyricularia oryzae Control value (Pyricularia oryzae [1]; 450 (gai/box)): 100; Pyricularia oryzae Control value (Pyricularia oryzae [2]; 15 gai/box): 100
CC(C)C(CNC(=O)c1cc2ccccc2o1)NC(=O)OCC(F)(F)F (stereo not shown) [Compound 3008],–,0%,0%,0%,Pyricularia oryzae Control value (Pyricularia oryzae [3]; [9]): 100; Pyricularia oryzae Control value (Pyricularia oryzae [1]; 225 (gai/box)): 100; Pyricularia oryzae Control value (Pyricularia oryzae [2]; 7.5 gai/box): 100
Cc1cc(C(F)(C(F)(F)F)C(F)(F)F)cc(C)c1NC(=O)c1cccc(NC(=O)OCC(F)(F)F)c1F [Compound 3000],3,90%,–,–,–
Cc1cc(C(F)(C(F)(F)F)C(F)(F)F)cc(C)c1NC(=O)c1cccc(N(C)C(=O)c2ccccc2)c1F [Compound 1208],5,95%,–,–,–
Cc1cc(C(F)(C(F)(F)F)C(F)(F)F)cc(C)c1NC(=O)c1cccc(NC(=O)c2cccnc2Cl)c1F [Compound 639],–,–,–,–,Pyricularia oryzae Control value (Pyricularia oryzae [1]; 300 (gai/box)): 0; Pyricularia oryzae Control value (Pyricularia oryzae [2]; 5 gai/box): 5
Cc1cc(C(F)(C(F)(F)F)C(F)(F)F)cc(C)c1NC(=O)c1cccc(NC(=O)OCCCl)c1F [Compound 3002],3,90%,–,–,–
Cc1cc(C(F)(C(F)(F)F)C(F)(F)F)cc(C)c1NC(=O)c1cccc(N(C)C(=O)c2cccnc2Cl)c1F [Compound 1245],–,–,–,–,Pyricularia oryzae Control value (Pyricularia oryzae [1]; 300 (gai/box)): 0; Pyricularia oryzae Control value (Pyricularia oryzae [2]; 5 gai/box): 5
Cc1ccc(C(=O)NCC(NC(=O)OCC(F)(F)F)C(C)(C)C)cc1 (stereo not shown) [Compound 3007],–,5%,–,–,Pyricularia oryzae Control value (Pyricularia oryzae [3]; [9]): 100; Pyricularia oryzae Control value (Pyricularia oryzae [1]; 225 (gai/box)): 100; Pyricularia oryzae Control value (Pyricularia oryzae [2]; 7.5 gai/box): 100
Cc1cc(C(F)(C(F)(F)F)C(F)(F)F)cc(C)c1NC(=O)c1cccc(N(C)C(=O)c2ccc(C#N)cc2)c1F [Compound 1217],–,–,95%,95%,Pyricularia oryzae Control value (Pyricularia oryzae [1]; 300 (gai/box)): 5; Pyricularia oryzae Control value (Pyricularia oryzae [2]; 5 gai/box): 0
Cc1ccc(C(=O)NCC(NC(=O)OCC(F)(F)F)C(C)C)cc1 (stereo not shown) [Compound 3006],–,0%,0%,0%,Pyricularia oryzae Control value (Pyricularia oryzae [3]; [9]): 100; Pyricularia oryzae Control value (Pyricularia oryzae [1]; 225 (gai/box)): 100; Pyricularia oryzae Control value (Pyricularia oryzae [2]; 7.5 gai/box): 100
O=C(Nc1cccc(C(=O)Nc2c(Br)cc(C(F)(C(F)(F)F)C(F)(F)F)cc2SC(F)(F)F)c1)c1ccccc1 [Compound 210],0,95%,–,–,–
Cc1ccc(C(=O)NCC(NC(=O)OC(C)C)C(C)C)cc1 (stereo not shown) [Compound 3003],–,0%,0%,0%,Pyricularia oryzae Control value (Pyricularia oryzae [3]; [8]): 100; Pyricularia oryzae Control value (Pyricularia oryzae [1]; 450 (gai/box)): 100; Pyricularia oryzae Control value (Pyricularia oryzae [2]; 15 gai/box): 100
"Cc1cc(C(F)(C(F)(F)F)C(F)(F)F)cc(C)c1NC(=O)c1cccc(NC(=O)c2cccnc2Cl)c1 [Compound 106, N-(2,6-dimethyl-4-heptafluoroisopropyl)phenyl 3-[(2-chloropyridine-3-yl)carbonylamino]benzamide]",–,–,–,–,Pyricularia oryzae Control value (Pyricularia oryzae [1]; 300 (gai/box)): 3; Pyricularia oryzae Control value (Pyricularia oryzae [2]; 5 gai/box): 4
Cc1cc(C(F)(C(F)(F)F)C(F)(F)F)cc(C)c1NC(=O)c1cccc(NC(=O)OC(CF)CF)c1 [Compound 3001],0,95%,–,–,–
